Measurements taken from ChEMBL document CHEMBL1132612, “Melatonergic properties of the (+)- and (-)-enantiomers of N-(4-methoxy-2,3-dihydro-1H-phenalen-2-yl)amide derivatives” (J Med Chem, 1999).

Assays:
[1] = biological target: Melatonin receptor (Gallus gallus, UniProt P49288+P51050+P49285); test: Inhibition of 2-[125I]- iodomelatonin from chicken brain melatonin receptors
[2] = biological target: Melatonin receptor (Xenopus laevis); test: Functional activity against melatonin receptor in lightening Xenopus laevis tadpole skin
[3] = test system: Melatonin receptor (Xenopus laevis); test: Percent maximum effect relative to melatonin (100%)
[4] = biological target: Melatonin receptor (Xenopus laevis); test: The functional activity on melatonin receptor was evaluated by its potency to lighten the skin of Xenopus laevis tadpoles

SMILES | Ki [1] [nM] | EC50 [2] [nM] | Activity [3] [%] | EC50 [4] [nM]
COc1ccc2cccc3c2c1C[C@H](NC(C)=O)C3 | 28.7 | > 1000 | 0 | –
CCCC(=O)N[C@H]1Cc2cccc3ccc(OC)c(c23)C1 | 3.2 | – | – | –
CCC(=O)N[C@H]1Cc2cccc3ccc(OC)c(c23)C1 | 9 | – | – | –
CCCC(=O)N[C@@H]1Cc2cccc3ccc(OC)c(c23)C1 | 10 | – | – | –
O=C(NCCc1cccc2ccccc12)C1CCC1 | 787 | > 1000 | – | –
COc1ccc2ccc(OC)c(CCNC(C)=O)c2c1 | – | 0.037 | 100 | –

The remaining lines, values ahead:

Ki [1] [nM] | EC50 [2] [nM] | Activity [3] [%] | EC50 [4] [nM] | SMILES
8.6 | > 1000 | 40 | – | CCC(=O)NC1Cc2cccc3ccc(OC)c(c23)C1 (racemic)
1.7 | – | 40 | > 1000 | CCCC(=O)NC1Cc2cccc3ccc(OC)c(c23)C1 (racemic)
38.3 | > 1000 | 0 | – | COc1ccc2cccc3c2c1C[C@@H](NC(C)=O)C3
36.5 | > 1000 | 0 | – | COc1ccc2cccc3c2c1CC(NC(C)=O)C3 (racemic)
7.6 | – | – | – | CCC(=O)N[C@@H]1Cc2cccc3ccc(OC)c(c23)C1
